Assay results: patent US20060035927A1, “Calcilytic compounds” (SmithKline Beecham Corporation, priority 1999, published 2006)
Structures can show the parent of a compound that is named as a salt.

Assays:
fetal rat long bone = experiment: Fetal rat long bone resorption assay; type: cell-based; conditions: 45Ca release, PTH-stimulated, 48 hours; read-out: IC50, inhibition of resorption in fetal rat long bone assay
Description: The assay was performed essentially as in Votta, Bone, Vol. 15, pp. 533-538, (1994). Timed-pregnant Sprague-Dawley rats (Taconic Farms, Germantown, N.Y.) were injected subcutaneously with 200 microcuries of ^45CaCl2 on day 18 of gestation, housed overnight, then anesthetized with Innovar-Vet (Pittman-Moore, Mundelein, Ill.) and sacrificed by cervical dislocation. The fetuses were removed aseptically and the radii and ulnae were dissected free of surrounding soft tissue and cartilagenous ends. The bone rudiments (n=4) were subsequently cultured for 18-24 hours in BGJb medium (Sigma, St. Louis, Mo.) containing 1 mg/ml BSA, then transferred to fresh medium and cultured for an additional 48 hours in the absence or presence of PTH (human parathyroid hormone, Bachem, Torrence, Calif.) and the desired inhibitor. ^45 Ca released into the medium and the residual ^45Ca in the bones (following solubilization in 5% TCA for 1 hour at room temperature) were quantitated by liquid scintillation spectrometry. Data are expressed as the percent ^45Ca released from treated bones as compared with corresponding control bones. Statistical differences were assessed by a one way analysis of variance (ANOVA). IC-50 values were based on data from two independent experiments.

[1] = system: primary human osteoblasts; experiment: Osteoblast cAMP production, primary human osteoblasts; type: cell-based; conditions: compound 0.1, 1 and 10 uM
Description: (§1) cAMP accumulation was measured in both human TF274 osteoblastic cells (derived by immortalization of human bone marrow stromal cells) see James, supra, and primary human osteoblasts derived from explants of trabecular bone as described in Beresford, Biochim. Biophys. Acta, Vol. 801, pp. 58-65 ([…]). cAMP levels in cell samples were measured using a non-radioactive protocol (Amersham kit). Alkaline phosphatase activity was determined using the standard colorimetric method as described previously in Gowen, Arth. Rheum., Vol. 31, pp. 1500-1507 (1988). N-[(2R-Hydroxy-3-[(3-chloro-2-cyano)phenoxy-propyl]-1,1-dimethyl-2-(2-naphthyl)ethyl amine hydrochloride was tested at 0.1, 1 and 10 uM. PTH 40 ng/ml was used as a positive control.

osteoblasts = experiment: Toxicity in vitro in osteoblast assays; type: cell-based, human; conditions: 10 uM concentration
Description: as §1

osteopenic ovx rats = experiment: Ovariectomized rat Study 1: bone mineral density by DXA; type: in vivo; conditions: Study 1, ovx rats, 100 mmol/kg body weight daily p.o., eight weeks of dosing
From the text: (§2) Seven month old virgin Sprague Dawley female rats were subjected to bilateral ovariectomy or sham surgery and the animals then held for a period of three months to allow the development of osteopenia. At that time a single sham group (n=10) and three groups of ovariectomized (ovx) animals (n=10-14) were assigned. The ovx groups were selected such that there was no significant difference in bone mineral density (“BMD”) of the lumbar spine, proximal tibia or distal femur between groups. Groups consisted of sham and ovx controls treated with dose vehicle (20% aqueous encapsin) and ovx groups treated with either N-[(2R-Hydroxy-3-[(3-chloro-2-cyano)phenoxy-propyl]-1,1-dimethyl-2-(2-naphthyl)ethyl amine hydrochloride (“calcilytic administered”) ([…] body weight daily p.o.) or rat PTH 1-34 (5 ug/kg body weight daily s.c.).
During the study blood samples were drawn for determination of circulating PTH and osteocalcin. BMD was determined by DXA (QDR4500 Hologic, Waltham, Mass.) prior to treatment and at weeks 4 and 8. At term tibiae were removed for histological analysis. All animals received tetracycline 10 and 3 days prior to the start of dosing and calcein (10 mg/kg) 10 and 3 days prior to sacrifice.

[2] = Ovariectomized rat Study 1: circulating compound levels (LC/MS/MS); type: in vivo; conditions: Study 1, plasma, after oral administration
From the text: as §2
Timed plasma samples were collected relative to administration of compound or PTH. PTH 1-34 was measured by RIA (Nichols Institute Diagnostics, San Juan Capistrano, Calif.). The concentrations of compound in the plasma were quantified by LC/MS/MS (limit of detection 10 ng/ml).

Ca^2+ receptor = biological target: T1, Ca^2+ receptor (Homo sapiens, UniProt P41180); experiment: Ca2+ receptor-mediated Ca2+ mobilization; type: cell-based
T1 sequence (P41180 20-1078): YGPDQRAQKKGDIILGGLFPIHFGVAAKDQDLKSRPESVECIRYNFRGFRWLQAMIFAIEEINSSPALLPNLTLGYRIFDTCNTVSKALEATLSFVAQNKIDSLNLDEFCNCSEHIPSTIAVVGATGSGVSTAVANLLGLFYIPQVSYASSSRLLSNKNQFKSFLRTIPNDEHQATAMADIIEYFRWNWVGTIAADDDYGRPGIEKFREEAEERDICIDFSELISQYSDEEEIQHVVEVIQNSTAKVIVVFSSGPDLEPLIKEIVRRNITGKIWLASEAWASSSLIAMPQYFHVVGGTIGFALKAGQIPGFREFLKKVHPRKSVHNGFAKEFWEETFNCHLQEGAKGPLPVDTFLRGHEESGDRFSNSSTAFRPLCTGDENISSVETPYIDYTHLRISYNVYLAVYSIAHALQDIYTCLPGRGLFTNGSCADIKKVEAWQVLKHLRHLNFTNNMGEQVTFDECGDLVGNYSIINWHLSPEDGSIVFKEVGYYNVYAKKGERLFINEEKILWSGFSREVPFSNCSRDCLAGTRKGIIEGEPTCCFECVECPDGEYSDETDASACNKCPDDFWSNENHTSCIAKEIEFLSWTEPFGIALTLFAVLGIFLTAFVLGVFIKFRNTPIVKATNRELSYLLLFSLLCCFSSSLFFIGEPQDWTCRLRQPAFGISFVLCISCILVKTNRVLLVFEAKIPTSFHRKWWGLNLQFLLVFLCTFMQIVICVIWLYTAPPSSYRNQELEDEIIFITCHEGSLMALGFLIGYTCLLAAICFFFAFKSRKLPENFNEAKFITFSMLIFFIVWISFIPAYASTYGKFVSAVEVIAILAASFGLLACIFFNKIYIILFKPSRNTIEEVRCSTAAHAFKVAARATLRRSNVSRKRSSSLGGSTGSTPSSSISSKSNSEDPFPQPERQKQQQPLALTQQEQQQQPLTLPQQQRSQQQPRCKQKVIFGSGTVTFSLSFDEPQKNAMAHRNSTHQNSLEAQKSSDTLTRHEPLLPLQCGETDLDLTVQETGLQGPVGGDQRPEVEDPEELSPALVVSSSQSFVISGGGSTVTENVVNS

CC(C)(Cc1ccc2ccccc2c1)NC[C@@H](O)COc1cccc(Cl)c1C#N [N-[(2R-Hydroxy-3-[(3-chloro-2-cyano)phenoxy-propyl]-1,1-dimethyl-2-(2-naphthyl)ethylamine hydrochloride]
IC50 (fetal rat long bone): 11.3 µM
PTH-induced cAMP levels ([1]; PTH 40 ng/ml): no effect
cAMP levels (basal) ([1]; PTH 40 ng/ml positive control): no effect
toxicity in vitro (osteoblasts): some toxicity
bone mass (BMD; lumbar spine, distal femur, proximal tibia) (osteopenic ovx rats): unaffected
sustained exposure to compound (circulating levels) [2]: elevated for up to eight hours
fold by which fetal rat long bone IC50 exceeds IC50 for Ca^2+ receptor-mediated Ca^2+ mobilization (Ca^2+ receptor): approximately 300 fold
